{"source": "paper PMC10211317", "about": "“Identification of ARUK2002821 as an isoform-selective PI5P4Kα inhibitor” (RSC Medicinal Chemistry, 2023)", "assay_in_all_cases": "KINOMEscan lipid kinase panel (DiscoverX)", "assay_type_in_all_cases": "binding", "set-up_in_all_cases": "dose or concentration left out as unconfirmed", "key": {"PIP5K2C (PI5P4KC)": {"target": "T1, PIP5K2C (PI5P4KC) (Homo sapiens, UniProt Q8TBX8)", "T1 construct": "purchased Eurofins Discovery (DiscoverX KINOMEscan)", "description": "(§1) generated using KINOMEscan™ technologya at DiscoverX. […]\n(§2) a Data were generated at Eurofins Discovery using DiscoverX KINOMEscanTM technology. Streptavidin-coated magnetic beads were treated with biotinylated small molecule ligands for 30 minutes at room temperature to generate affinity resins for kinase assays. The liganded beads were blocked with excess biotin and washed with blocking buffer (SeaBlock (Pierce), 1% BSA, 0.05% Tween 20, 1 mM DTT) to remove unbound ligand and to reduce non-specific binding. Binding reactions were assembled by combining kinases, liganded affinity beads, and test compounds in 1x binding buffer (20% SeaBlock, 0.17x PBS, 0.05% Tween 20, 6 mM DTT). Test […]\n(§3) The compounds were then diluted directly into the assays such that the final concentration of DMSO was 0.9%. All reactions performed in polypropylene 384-well plate. Each was a final volume of 0.02 ml. The assay plates were incubated at room temperature with shaking for […]\n(§4) room temperature with shaking for 30 minutes. The kinase concentration in the eluates was measured by qPCR. […]"}, "PIK3CA(I800L)": {"target": "T2, PIK3CA(I800L) (Homo sapiens, UniProt P42336, I800L)", "T2 construct": "purchased DiscoverX (Eurofins Discovery)", "T2 sequence (P42336 whole entry I800L)": "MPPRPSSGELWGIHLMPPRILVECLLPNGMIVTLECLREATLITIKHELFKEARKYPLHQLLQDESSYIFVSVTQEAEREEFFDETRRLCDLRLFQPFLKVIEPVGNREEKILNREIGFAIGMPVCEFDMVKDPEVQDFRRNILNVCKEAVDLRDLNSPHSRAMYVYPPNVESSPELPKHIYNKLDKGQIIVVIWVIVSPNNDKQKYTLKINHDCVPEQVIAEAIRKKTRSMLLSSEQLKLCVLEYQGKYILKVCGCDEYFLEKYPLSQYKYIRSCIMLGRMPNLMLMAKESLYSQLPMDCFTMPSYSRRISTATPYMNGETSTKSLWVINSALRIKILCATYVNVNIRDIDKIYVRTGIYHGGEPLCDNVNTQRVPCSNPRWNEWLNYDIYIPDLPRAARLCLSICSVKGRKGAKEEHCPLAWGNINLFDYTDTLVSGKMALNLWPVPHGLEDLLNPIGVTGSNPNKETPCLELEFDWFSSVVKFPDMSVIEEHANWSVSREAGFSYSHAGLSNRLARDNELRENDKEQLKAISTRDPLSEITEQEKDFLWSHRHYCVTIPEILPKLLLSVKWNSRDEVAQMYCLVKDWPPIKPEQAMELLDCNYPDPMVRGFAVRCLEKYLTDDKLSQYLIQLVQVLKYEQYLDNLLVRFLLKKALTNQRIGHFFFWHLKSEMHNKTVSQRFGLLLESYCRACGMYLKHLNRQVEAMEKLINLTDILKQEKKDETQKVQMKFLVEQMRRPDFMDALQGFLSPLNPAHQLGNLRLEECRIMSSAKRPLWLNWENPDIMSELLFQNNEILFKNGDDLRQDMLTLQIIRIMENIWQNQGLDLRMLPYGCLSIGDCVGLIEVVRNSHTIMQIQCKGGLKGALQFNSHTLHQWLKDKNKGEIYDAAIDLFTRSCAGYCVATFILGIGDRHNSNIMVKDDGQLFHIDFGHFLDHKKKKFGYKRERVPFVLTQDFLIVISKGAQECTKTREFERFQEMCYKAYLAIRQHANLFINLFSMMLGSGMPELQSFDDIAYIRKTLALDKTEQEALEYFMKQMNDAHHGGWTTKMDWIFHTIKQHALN", "description": "as §1, §2, §3, §4"}, "PIP5K1C": {"target": "T3, PIP5K1C (Homo sapiens, UniProt O60331)", "T3 construct": "purchased Eurofins Discovery (DiscoverX KINOMEscan)", "description": "as §1, §2, §3, §4"}, "PIKFYVE": {"target": "T4, PIKFYVE (Homo sapiens, UniProt Q9Y2I7)", "T4 construct": "purchased DiscoverX (Eurofins Discovery)", "description": "as §1, §2, §3, §4"}, "PIP5K1A": {"target": "T5, PIP5K1A (Homo sapiens, UniProt Q99755)", "T5 construct": "purchased DiscoverX (Eurofins Discovery)", "description": "as §1, §2, §3, §4"}, "VPS34": {"target": "T6, VPS34 (Homo sapiens, UniProt Q8NEB9)", "T6 construct": "purchased Eurofins Discovery (DiscoverX KINOMEscan)", "description": "as §1, §2, §3, §4"}, "PIK3C2G": {"target": "T7, PIK3C2G (Homo sapiens, UniProt O75747)", "T7 construct": "purchased DiscoverX (Eurofins Discovery)", "description": "as §1, §2, §3, §4"}, "PIK3CA(M1043I)": {"target": "T8, PIK3CA(M1043I) (Homo sapiens, UniProt P42336, M1043I)", "T8 construct": "purchased DiscoverX (Eurofins Discovery)", "T8 sequence (P42336 whole entry M1043I)": "as the sequence (P42336 whole entry I800L) above, with L800I, M1043I counted along it", "description": "as §1, §2, §3, §4"}, "PIK3CA(H1047L)": {"target": "T9, PIK3CA(H1047L) (Homo sapiens, UniProt P42336, H1047L)", "T9 construct": "purchased DiscoverX (Eurofins Discovery)", "T9 sequence (P42336 whole entry H1047L)": "as the sequence (P42336 whole entry I800L) above, with L800I, H1047L counted along it", "description": "as §1, §2, §3, §4"}, "PIK4CB": {"target": "PIK4CB (Homo sapiens, UniProt Q9UBF8)", "sequence (Q9UBF8 whole entry)": "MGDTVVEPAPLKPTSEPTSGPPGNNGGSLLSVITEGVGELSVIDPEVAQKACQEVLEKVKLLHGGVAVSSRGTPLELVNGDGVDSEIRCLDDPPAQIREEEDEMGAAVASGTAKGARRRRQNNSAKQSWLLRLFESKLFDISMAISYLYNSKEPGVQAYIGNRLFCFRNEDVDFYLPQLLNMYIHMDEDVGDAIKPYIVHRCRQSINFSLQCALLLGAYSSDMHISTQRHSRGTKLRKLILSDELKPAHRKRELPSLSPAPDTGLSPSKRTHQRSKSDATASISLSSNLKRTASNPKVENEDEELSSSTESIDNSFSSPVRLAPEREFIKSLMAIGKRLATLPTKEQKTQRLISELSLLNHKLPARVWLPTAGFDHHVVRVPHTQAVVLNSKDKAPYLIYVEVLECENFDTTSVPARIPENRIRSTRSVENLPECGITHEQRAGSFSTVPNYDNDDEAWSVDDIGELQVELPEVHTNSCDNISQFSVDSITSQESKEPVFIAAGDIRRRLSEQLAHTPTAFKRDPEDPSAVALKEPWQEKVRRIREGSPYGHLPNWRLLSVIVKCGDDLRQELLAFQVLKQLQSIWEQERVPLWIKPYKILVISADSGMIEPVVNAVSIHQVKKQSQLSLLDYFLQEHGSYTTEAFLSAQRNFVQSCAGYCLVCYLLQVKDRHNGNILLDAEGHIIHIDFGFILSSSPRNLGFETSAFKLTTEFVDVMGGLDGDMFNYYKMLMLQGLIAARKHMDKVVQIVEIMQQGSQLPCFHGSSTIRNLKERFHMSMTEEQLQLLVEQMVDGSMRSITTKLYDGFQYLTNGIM", "description": "as §1, §2, §3, §4"}, "PIK3CA(E545K)": {"target": "T10, PIK3CA(E545K) (Homo sapiens, UniProt P42336, E545K)", "T10 construct": "purchased DiscoverX (Eurofins Discovery)", "T10 sequence (P42336 whole entry E545K)": "as the sequence (P42336 whole entry I800L) above, with E545K, L800I counted along it", "description": "as §1, §2, §3, §4"}, "PIK3CD": {"target": "T11, PIK3CD (Homo sapiens, UniProt O00329)", "T11 construct": "purchased DiscoverX (Eurofins Discovery)", "description": "as §1, §2, §3, §4"}, "PIK3CB": {"target": "T12, PIK3CB (Homo sapiens, UniProt P42338)", "T12 construct": "purchased DiscoverX (Eurofins Discovery)", "description": "as §1, §2, §3, §4"}, "PIK3CA(H1047Y)": {"target": "T13, PIK3CA(H1047Y) (Homo sapiens, UniProt P42336, H1047Y)", "T13 construct": "purchased DiscoverX (Eurofins Discovery)", "T13 sequence (P42336 whole entry H1047Y)": "as the sequence (P42336 whole entry I800L) above, with L800I, H1047Y counted along it", "description": "as §1, §2, §3, §4"}, "PIK3CA(Q546K)": {"target": "T14, PIK3CA(Q546K) (Homo sapiens, UniProt P42336, Q546K)", "T14 construct": "purchased DiscoverX (Eurofins Discovery)", "T14 sequence (P42336 whole entry Q546K)": "as the sequence (P42336 whole entry I800L) above, with Q546K, L800I counted along it", "description": "as §1, §2, §3, §4"}, "PIK3CA(E545A)": {"target": "T15, PIK3CA(E545A) (Homo sapiens, UniProt P42336, E545A)", "T15 construct": "purchased DiscoverX (Eurofins Discovery)", "T15 sequence (P42336 whole entry E545A)": "as the sequence (P42336 whole entry I800L) above, with E545A, L800I counted along it", "description": "as §1, §2, §3, §4"}, "PIK3CA": {"target": "T16, PIK3CA (Homo sapiens, UniProt P42336)", "T16 construct": "purchased DiscoverX (Eurofins Discovery)", "description": "as §1, §2, §3, §4"}, "PIK3CA(C420R)": {"target": "T17, PIK3CA(C420R) (Homo sapiens, UniProt P42336, C420R)", "T17 construct": "purchased DiscoverX (Eurofins Discovery)", "T17 sequence (P42336 whole entry C420R)": "as the sequence (P42336 whole entry I800L) above, with C420R, L800I counted along it", "description": "as §1, §2, §3, §4"}, "PIK3CA(E542K)": {"target": "T18, PIK3CA(E542K) (Homo sapiens, UniProt P42336, E542K)", "T18 construct": "purchased DiscoverX (Eurofins Discovery)", "T18 sequence (P42336 whole entry E542K)": "as the sequence (P42336 whole entry I800L) above, with E542K, L800I counted along it", "description": "as §1, §2, §3, §4"}, "PIK3CG": {"target": "T19, PIK3CG (Homo sapiens, UniProt P48736)", "T19 construct": "purchased DiscoverX (Eurofins Discovery)", "description": "as §1, §2, §3, §4"}}, "data": [{"smiles": "CC1(C)CN(c2ncc(C(=O)Nc3cccc(C(F)(F)F)c3)c(N)n2)C(=O)N1", "note": "[compound 7, Imanixil]", "values": [{"measurement": "% activity remaining", "setting": "PIP5K2C (PI5P4KC)", "value": 100, "unit": "%"}, {"measurement": "% activity remaining", "setting": "PIK3CA(I800L)", "value": 100, "unit": "%"}, {"measurement": "% activity remaining", "setting": "PIP5K1C", "value": 100, "unit": "%"}, {"measurement": "% activity remaining", "setting": "PIKFYVE", "value": 100, "unit": "%"}, {"measurement": "% activity remaining", "setting": "PIP5K1A", "value": 99, "unit": "%"}, {"measurement": "% activity remaining", "setting": "VPS34", "value": 100, "unit": "%"}, {"measurement": "% activity remaining", "setting": "PIK3C2G", "value": 100, "unit": "%"}, {"measurement": "% activity remaining", "setting": "PIK3CA(M1043I)", "value": 100, "unit": "%"}, {"measurement": "% activity remaining", "setting": "PIK3CA(H1047L)", "value": 100, "unit": "%"}, {"measurement": "% activity remaining", "setting": "PIK4CB", "value": 98, "unit": "%"}, {"measurement": "% activity remaining", "setting": "PIK3CA(E545K)", "value": 100, "unit": "%"}, {"measurement": "% activity remaining", "setting": "PIK3CD", "value": 100, "unit": "%"}, {"measurement": "% activity remaining", "setting": "PIK3CB", "value": 100, "unit": "%"}, {"measurement": "% activity remaining", "setting": "PIK3CA(H1047Y)", "value": 95, "unit": "%"}, {"measurement": "% activity remaining", "setting": "PIK3CA(Q546K)", "value": 100, "unit": "%"}, {"measurement": "% activity remaining", "setting": "PIK3CA(E545A)", "value": 100, "unit": "%"}, {"measurement": "% activity remaining", "setting": "PIK3CA", "value": 100, "unit": "%"}, {"measurement": "% activity remaining", "setting": "PIK3CA(C420R)", "value": 100, "unit": "%"}, {"measurement": "% activity remaining", "setting": "PIK3CA(E542K)", "value": 100, "unit": "%"}, {"measurement": "% activity remaining", "setting": "PIK3CG", "value": 100, "unit": "%"}]}]}
